# Measured values as given in article PMC8694143 (Microbiology Spectrum, 2021).
# No end group written: not given here.
# Assays:
# [1] = system: MRSA 33592; assay: Transmission electron microscopy; assay type: cell-based, Staphylococcus aureus; details: 25 μg/mL, PBS, 37°C
# Method: Samples for TEM imaging were prepared by diluting MRSA 33592 cultures to an OD of 0.5 in PBS before the cell suspension was treated with 25 μg/mL STIP3-29. Treated and untreated cells were incubated at 37°C. Treated samples were prepared from imaging after 30 min and 4 h of treatment. An untreated control sample was prepared after a 4 h incubation period. Cells from the distinct time points or treatments were harvested by centrifugation, fixed for 4 h using 2% glutaraldehyde, postfixed for 1 h with 1% OsO4, dehydrated with a graded ethanol series, embedded in Epon, and en bloc stained with saturated uranyl acetate in 70% ethanol prior to sectioning. Imaging was performed using a Hitachi HT7700 instrument.
# [2] = system: S. auricularis; assay: MIC determination in broth; assay type: cell-based, Staphylococcus auricularis; details: isolate from the healthy quarter of a dairy cow; MH broth
# Method: (§1) The MICs were measured for bioactive peptides identified from the initial screen. Cation-adjusted Mueller-Hinton (MH) broth was used as the growth medium for MIC determination experiments. Bacterial cultures were diluted to an OD of 5 × 10^−4 (∼10^5 CFU/mL) in 200 μL MH broth mixed with peptides in a 2-fold dilution series arrayed in 96-well plates. Plates were incubated without shaking at 30 or 37°C depending on the organism.
# [3] = system: S. epidermidis; assay: MIC determination in broth; assay type: cell-based, Staphylococcus epidermidis; details: isolate from the healthy quarter of a dairy cow; MH broth
# Method: as §1
# [4] = system: Pseudomonas aeruginosa ATCC 27853; assay: MIC determination in broth; assay type: cell-based; details: MH broth
# Method: as §1
# [5] = system: Mannheimia haemolytica ATCC 33396; assay: MIC determination in broth; assay type: cell-based; details: MH broth
# Method: as §1
# [6] = system: Escherichia coli DH10B; assay: MIC determination in broth; assay type: cell-based; details: MH broth
# Method: as §1
# [7] = system: S. scuri; assay: MIC determination in broth; assay type: cell-based; details: isolate from the healthy quarter of a dairy cow; MH broth
# Method: as §1
# [8] = system: M. luteus ATCC 4698; assay: MIC determination in broth; assay type: cell-based, Micrococcus luteus
# [9] = Circular dichroism spectroscopy; assay type: physicochemical; details: CD, 50% TFE (vol/vol), peptide 0.2 mg/mL, room temperature
# Method: Peptides were dissolved in ultrapure water or 50% TFE (vol/vol) at a concentration of 0.2 mg/mL for spectroscopy. Spectra of samples in a 1 mm pathlength quartz cuvette were recorded from 180 to 260 nm at 0.5 nm steps using an Applied Photophysics Chirascan Plus CD spectrophotometer operating at room temperature.
# [10] = system: S. equorum; assay: MIC determination in broth; assay type: cell-based, Staphylococcus equorum; details: isolate from the healthy quarter of a dairy cow; MH broth
# Method: as §1
# [11] = system: 3D EpiDerm skin tissues; assay: Tissue cytotoxicity, alamarBlue; assay type: cell-based, human; details: 250 μg/mL (40-fold the MIC), 24 h, data not shown
# Method: Cytotoxicity was measured using the 3D EpiDerm skin tissues and HeLa (ATCC CCL-2) cells using a fluorescent reporter of cell viability, alamarBlue (ThermoFisher Scientific). 3D EpiDerm skin tissues (MatTek EPI-200-AFAB) were transferred to a 12-well plate containing 600 μL of AFAB-assay medium supplemented with 10% vol/vol alamarBlue. […] HeLa cells were seeded in a 96-well plate at 2 × 10^4 cells/per well and incubated overnight at 37°C in a humidified 5% CO2 environment to prepare wells at ∼50% confluence for treatments after spent Dulbecco’s modified Eagle’s medium (DMEM) was removed and cells were washed with PBS. Assays were then performed using phenol red-free DMEM supplement with 9% vol/vol alamarBlue and peptide concentrations varying from 3.13 to 200 μg/mL. After a 24 h incubation period, alamarBlue fluorescence emission was measured at 590 nm upon excitation at 560 nm using Varioskan Lux plate reader (Thermo Scientific). Fluorescence intensities of treated cultures were normalized to measurement made for untreated control samples. Experimental data sets were fit to nonlinear dose-response curves to determine IC50 values using Origin 2019.
# [12] = system: S. pseudintermedius canine isolate MRSP24; assay: MIC determination in broth; assay type: cell-based, Staphylococcus pseudintermedius; details: MH broth
# Method: as §1
# [13] = system: S. pseudintermedius canine isolate MRSP16; assay: MIC determination in broth; assay type: cell-based, Staphylococcus pseudintermedius; details: MH broth
# Method: as §1
# [14] = system: S. pseudintermedius canine isolate MSSP42; assay: MIC determination in broth; assay type: cell-based, Staphylococcus pseudintermedius; details: MH broth
# Method: as §1
# [15] = system: S. pseudintermedius human isolate SPC020 (MSSR); assay: MIC determination in broth; assay type: cell-based, Staphylococcus pseudintermedius; details: MH broth
# Method: as §1
# [16] = system: S. pseudintermedius human isolate SPC002 (MSSP); assay: MIC determination in broth; assay type: cell-based, Staphylococcus pseudintermedius; details: MH broth
# Method: as §1
# [17] = system: S. pseudintermedius human isolate SPC001 (MSSP); assay: MIC determination in broth; assay type: cell-based, Staphylococcus pseudintermedius; details: MH broth
# Method: as §1
substance,measurement,setting,value
TVGGLVKWILKTVKKFA-NH2 [STIP3-29],"Peptide-induced lysis by TEM, 30 min",[1]; 30 min,No peptide-induced lysis was observed
same,"Peptide-induced lysis by TEM, 4 h",[1]; 4 h,evidence was present
same,"MIC, S. auricularis",[2],1.56 µg/mL
same,"MIC, S. epidermidis",[3],3.13 µg/mL
same,"MIC, Pseudomonas aeruginosa ATCC 27853",[4],50 µg/mL
same,"MIC, Mannheimia haemolytica ATCC 33396",[5],6.25 µg/mL
same,"MIC, Escherichia coli DH10B",[6],12.5 µg/mL
same,"MIC, S. scuri",[7],3.13 µg/mL
same,"MIC, M. luteus","[8]; cation-adjusted MH broth, ~10^5 CFU/mL, 30°C, 48 h",1.56 µg/mL
same,"MIC, M. luteus, molar",[8]; conversion of 1.56 μg/mL,0.85 µM
same,α-Helical content (%),[9],61%
same,"MIC, S. equorum",[10],3.13 µg/mL
same,"Tissue-level cytotoxicity, redox-sensitive dye",[11],unable to differentiate STIP3-29-treated and untreated samples
same,"MIC, S. pseudintermedius MRSP24",[12],3.13 µg/mL
same,"MIC, S. pseudintermedius MRSP16",[13],3.13 µg/mL
same,"MIC, S. pseudintermedius MSSP42",[14],3.13 µg/mL
same,"MIC, S. pseudintermedius SPC020 (MSSR)",[15],3.13 µg/mL
same,"MIC, S. pseudintermedius SPC002 (MSSP)",[16],3.13 µg/mL
same,"MIC, S. pseudintermedius SPC001 (MSSP)",[17],3.13 µg/mL
